Reference: patent US20260217652A1, “PHENYL-SUBSTITUTED HETEROARYL COMPOUND AND PHARMACEUTICAL COMPOSITION COMPRISING SAME, PREPARATION METHOD THEREFOR AND USE THEREOF” (SHANGHAI MEIYUE BIOTECH DEVELOPMENT CO., LTD., priority 2023, published 2026)

target: T1, p38 MAPK/MK2 (Homo sapiens, UniProt Q16539); test: In vitro activity assay of p38 MAPK/MK2 (Z-LYTE kinase assay kit); format: biochemical; settings: active p38α, inactive MK2, Ser/Thr 4; 1-hour reaction at 20° C.
T1 construct: purchased Carna (p38α); Abcam (MK2) 04-152; 79910
Description: The inhibitory effect of the compound on p38 MAPK/MK2 was evaluated using the Z-LYTE kinase assay kit (Thermo, PV3177). The test compound was dissolved in DMSO to obtain a 10 mM stock solution and stored at −20° C. for future use. The initial concentration of the compound was […], with 1% DMSO, 5-fold serial dilution, 8 concentrations, and duplicate wells. […] After a 1-hour reaction at 20° C., Development Reagent A diluted 2048-fold was added to each well, followed by incubation at room temperature for 1 hour. The reaction was terminated by adding 5 μL of stop buffer, and the plate was read using a microplate reader (Ex. 400 nm, Em. 445 nm; Ex. 400 nm, Em. 520 nm). The concentration-effect curve was fitted using GraphPad Prism 8 software, and the compound concentration resulting in 50% inhibition, IC50, was calculated.

T1 sequence (Q16539 whole entry): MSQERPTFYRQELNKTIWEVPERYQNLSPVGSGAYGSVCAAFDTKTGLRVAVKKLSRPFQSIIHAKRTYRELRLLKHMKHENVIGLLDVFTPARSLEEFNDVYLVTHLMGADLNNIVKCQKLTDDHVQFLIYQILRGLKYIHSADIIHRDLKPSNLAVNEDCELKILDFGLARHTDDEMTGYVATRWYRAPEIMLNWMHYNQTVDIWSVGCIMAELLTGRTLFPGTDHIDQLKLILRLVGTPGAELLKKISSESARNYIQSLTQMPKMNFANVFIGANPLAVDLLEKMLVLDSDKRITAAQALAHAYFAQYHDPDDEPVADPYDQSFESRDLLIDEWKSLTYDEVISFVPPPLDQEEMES
T1 sequence (P49137 whole entry partner): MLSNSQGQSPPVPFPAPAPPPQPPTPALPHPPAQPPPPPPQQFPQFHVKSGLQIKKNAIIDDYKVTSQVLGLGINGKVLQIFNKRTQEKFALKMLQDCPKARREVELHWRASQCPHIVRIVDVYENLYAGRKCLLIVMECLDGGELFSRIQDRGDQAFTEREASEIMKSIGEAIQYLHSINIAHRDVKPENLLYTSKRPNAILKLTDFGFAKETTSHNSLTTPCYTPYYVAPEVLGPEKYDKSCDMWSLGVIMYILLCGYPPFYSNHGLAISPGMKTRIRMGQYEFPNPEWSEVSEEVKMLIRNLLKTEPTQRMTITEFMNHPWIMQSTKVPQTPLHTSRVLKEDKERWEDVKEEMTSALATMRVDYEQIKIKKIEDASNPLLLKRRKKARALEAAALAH

Row | IC50 | SMILES
1 | 2.25 nM | COC[C@](C)(O)c1c(F)ccc(-c2cc(-n3c(C)cc(OCc4ncc(F)cc4F)c(Cl)c3=O)c(C)cn2)c1F (atropisomer, axis not shown) [Compound 149]
2 | 1.83 nM | Cc1cnc(-c2ccc(F)c([C@@](C)(O)CO)c2)c(F)c1-n1c(C)cc(OCc2ncc(F)cc2F)c(Cl)c1=O (single isomer, unassigned) [Compound 51-P1]
3 | 1.27 nM | Cc1cnc(-c2ccc(F)c([C@](C)(O)CO)c2F)cc1-n1c(C)cc(OCc2ncc(F)cc2F)c(Cl)c1=O (single isomer, unassigned) [Compound 65-1]
4 | 1.86 nM | Cc1cnc(-c2ccc(F)c([C@@](C)(O)CO)c2F)cc1-n1c(C)cc(OCc2ncc(F)cc2F)c(Cl)c1=O (single isomer, unassigned) [Compound 65-2]
5 | 0.4 nM | Cc1cnc(-c2ccc(F)c([C@](C)(O)CO)c2F)cc1-n1c(C)cc(OCc2ncc(F)cc2F)c(Cl)c1=O (single isomer, unassigned) [Compound 65-P2]
6 | 0.14 nM | Cc1cnc(-c2ccc3c(c2)C(C)(O)C(=O)N3)c(F)c1-n1c(C)cc(OCc2ncc(F)cc2F)c(Cl)c1=O (single isomer, unassigned) [Compound 115-P1]
7 | 0.7 nM | Cc1cnc(-c2ccc3c(c2)C(C)(O)C(=O)N3)c(F)c1-n1c(C)cc(OCc2ncc(F)cc2F)c(Cl)c1=O (single isomer, unassigned) [Compound 115-P2]
8 | 2.26 nM | CNC(=O)C(C)(O)c1c(F)ccc(-c2cc(-n3c(C)cc(OCc4ncc(F)cc4F)c(Cl)c3=O)c(C)cn2)c1F (single isomer, unassigned) [Compound 116-P2]
9 | 0.14 nM | CNC(=O)C(C)(O)c1c(F)ccc(-c2cc(-n3c(C)cc(OCc4ncc(F)cc4F)c(Cl)c3=O)c(C)cn2)c1F (single isomer, unassigned) [Compound 116-P4]
10 | 6.81 nM | CNC(=O)C(C)(O)c1cccc(-c2cc(-n3c(C)cc(OCc4ncc(F)cc4F)c(Cl)c3=O)c(C)cn2)c1F (single isomer, unassigned) [Compound 121-P1]
11 | 2.83 nM | CNC(=O)C(C)(O)c1cccc(-c2cc(-n3c(C)cc(OCc4ncc(F)cc4F)c(Cl)c3=O)c(C)cn2)c1F (single isomer, unassigned) [Compound 121-P2]
12 | 0.41 nM | Cc1cnc(-c2ccc(F)c(C(C)(O)C(N)=O)c2F)cc1-n1c(C)cc(OCc2ncc(F)cc2F)c(Cl)c1=O (single isomer, unassigned) [Compound 125-P1]
13 | 0.28 nM | Cc1cnc(-c2ccc(F)c(C(C)(O)C(N)=O)c2F)cc1-n1c(C)cc(OCc2ncc(F)cc2F)c(Cl)c1=O (single isomer, unassigned) [Compound 125-P3]
14 | 1.68 nM | Cc1cnc(-c2cccc(C(C)(O)C(N)=O)c2F)cc1-n1c(C)cc(OCc2ncc(F)cc2F)c(Cl)c1=O (single isomer, unassigned) [Compound 126-P1]
15 | 0.28 nM | Cc1cnc(-c2cccc(C(C)(O)C(N)=O)c2F)cc1-n1c(C)cc(OCc2ncc(F)cc2F)c(Cl)c1=O (single isomer, unassigned) [Compound 126-P3]
16 | 90.3 nM | Cc1cnc(-c2cccc(C(=O)NO)c2)cc1-n1c(C)cc(OCc2ncc(F)cc2F)c(Cl)c1=O [Compound 5]
17 | 87.5 nM | Cc1cnc(-c2cccc(C(=O)NOCCO)c2)cc1-n1c(C)cc(OCc2ncc(F)cc2F)c(Cl)c1=O [Compound 7]
18 | 60.5 nM | Cc1cnc(-c2cccc(C(=O)N3CC(C)(O)C3)c2)cc1-n1c(C)cc(OCc2ncc(F)cc2F)c(Cl)c1=O [Compound 10]
19 | 87.9 nM | CNC(=O)c1cc(-c2cc(-n3c(C)cc(OCc4ncc(F)cc4F)c(Cl)c3=O)c(C)cn2)ccc1F [Compound 17]
20 | 0.51 nM | Cc1cnc(-c2cccc(C(N)=O)c2F)cc1-n1c(C)cc(OCc2ncc(F)cc2F)c(Cl)c1=O [Compound 21-P2]
21 | 0.71 nM | Cc1cnc(-c2cccc([C@](C)(O)CO)c2F)cc1-n1c(C)cc(OCc2ncc(F)cc2F)c(Cl)c1=O [Compound 35-P2]
22 | 2.39 nM | Cc1cnc(-c2cccc(C(C)(O)CO)c2F)cc1-n1c(C)cc(OCc2ncc(F)cc2F)c(Cl)c1=O (stereo not shown) [Compound 35]

Row | IC50 | SMILES
23 | 4.66 nM | Cc1cnc(-c2cccc([C@](C)(O)CO)c2Cl)cc1-n1c(C)cc(OCc2ncc(F)cc2F)c(Cl)c1=O [Compound 37-1]
24 | 0.12 nM | Cc1ccc(-c2ncc(C)c(-n3c(C)cc(OCc4ncc(F)cc4F)c(Cl)c3=O)c2F)cc1[C@@](C)(O)CO [Compound 52-P1]
25 | 1.2 nM | Cc1cnc(-c2ccc(Cl)c([C@](C)(O)CO)c2)c(F)c1-n1c(C)cc(OCc2ncc(F)cc2F)c(Cl)c1=O [Compound 53-1]
26 | 3.02 nM | Cc1cnc(-c2ccc(Cl)c([C@@](C)(O)CO)c2)c(F)c1-n1c(C)cc(OCc2ncc(F)cc2F)c(Cl)c1=O [Compound 53-2]
27 | 0.35 nM | Cc1cnc(-c2cccc([C@](C)(O)CO)c2Cl)c(F)c1-n1c(C)cc(OCc2ncc(F)cc2F)c(Cl)c1=O [Compound 62-P1]
28 | 0.058 nM | Cc1cnc(-c2cccc([C@@](C)(O)CO)c2Cl)c(F)c1-n1c(C)cc(OCc2ncc(F)cc2F)c(Cl)c1=O [Compound 62-P3]
29 | 8.54 nM | Cc1cnc(-c2cccc([C@@](C)(O)CO)c2)cc1-n1c(C)cc(OCc2ncc(F)cc2F)c(Cl)c1=O [Compound 87-P1]
30 | 0.93 nM | Cc1cnc(-c2cccc(C(C)(C)O)c2F)cc1-n1c(C)cc(OCc2ncc(F)cc2F)c(Cl)c1=O [Compound 101]
31 | 0.15 nM | Cc1cnc(-c2cccc(C(C)(C)O)c2O)cc1-n1c(C)cc(OCc2ncc(F)cc2F)c(Cl)c1=O [Compound 102]
32 | 7.73 nM | Cc1cnc(-c2cc([C@@](C)(O)CO)ccc2F)c(F)c1-n1c(C)cc(OCc2ncc(F)cc2F)c(Cl)c1=O [Compound 106-P1]
33 | 4.99 nM | Cc1cnc(-c2cc([C@@](C)(O)CO)ccc2Cl)c(F)c1-n1c(C)cc(OCc2ncc(F)cc2F)c(Cl)c1=O [Compound 107-P1]
34 | 1.94 nM | Cc1cnc(-c2cc(F)cc([C@](C)(O)CO)c2F)cc1-n1c(C)cc(OCc2ncc(F)cc2F)c(Cl)c1=O [Compound 110-1]
35 | 0.7 nM | Cc1cnc(-c2cc(F)cc([C@@](C)(O)CO)c2F)cc1-n1c(C)cc(OCc2ncc(F)cc2F)c(Cl)c1=O [Compound 110-P1]
36 | 19.9 nM | Cc1cnc(-c2ccc3c(c2)C(C)(C)NC3=O)c(F)c1-n1c(C)cc(OCc2ncc(F)cc2F)c(Cl)c1=O [Compound 129]
37 | 39.9 nM | Cc1cnc(-c2ccc3c(c2F)C(C)(C)NC3=O)cc1-n1c(C)cc(OCc2ncc(F)cc2F)c(Cl)c1=O [Compound 134]
38 | 13 nM | Cc1cnc(-c2cccc(C3(O)CC3)c2F)cc1-n1c(C)cc(OCc2ncc(F)cc2F)c(Cl)c1=O [Compound 135]
39 | 26.2 nM | Cc1cnc(-c2cccc(C3(O)CC3)c2)c(F)c1-n1c(C)cc(OCc2ncc(F)cc2F)c(Cl)c1=O [Compound 136]
40 | 1.21 nM | Cc1cnc(-c2ccc(F)c(C(C)(O)C(=O)O)c2)c(F)c1-n1c(C)cc(OCc2ncc(F)cc2F)c(Cl)c1=O (stereo not shown) [Compound 138-1]
41 | 53 nM | CNCC(C)(O)c1cc(-c2ncc(C)c(-n3c(C)cc(OCc4ncc(F)cc4F)c(Cl)c3=O)c2F)ccc1F (stereo not shown) [Compound 139]
42 | 3.37 nM | Cc1cc(OCc2ncc(F)cc2F)c(Cl)c(=O)n1-c1ccnc(-c2ccc(F)c(C(C)(C)O)c2F)c1 [Compound 142]
43 | 18.1 nM | Cc1cc(OCc2ncc(F)cc2F)c(Cl)c(=O)n1-c1ccnc(-c2cccc([C@@](C)(O)CO)c2F)c1 [Compound 143]
